The results in this text go back to patent US20040175737A1, “Assay for RNase H activity” (Wyeth, priority 2002, published 2004).

This data set addresses T1, HIV RT RNase H (Human immunodeficiency virus type 1 group M subtype B, UniProt P04585).
T1 construct: HIV p66/p51 heterodimer; purchased Enzyco, Inc. (Replidyne Inc., Louisville Colo.)
In words: PAGE-based endpoint assay for HIV RT RNase H activity, titrated with single stranded RNA or DNA contaminants. As to conditions: 5, 10 and 50 pmol RNA; molar ratios to RNA-DNA hybrid substrate 1:1, 2:1 and 10:1; 1 U HIV RT enzyme; 37° C. It is filed as biochemical. The source says:
RNase H. Samples of HIV p66/p51 heterodimer were obtained from Enzyco, Inc. (Replidyne Inc., Louisville Colo.) Methods for the recombinant expression, purification and characterization of this enzyme have been previously described (Thimmig & McHenry, J. Biol. Chem. 1993, 268:16528-16536). Purity of the enzyme samples was verified on polyacrylamide gels. […] Samples of E. coli RNase H1 were purchased from EPICENTR (Madison, Wis.).
Radiolabled RNA was generated by incorporating ^33P-ATP in the T7 RNA polymerase reaction, and annealed to an unlabeled ssDNA 49mer having the nucleotide sequence set forth in SEQ ID NO:2 (shown below). In an alternative version of these experiments, the complementary DNA oligonucleotide (SEQ ID NO:2) was radiolabeled with ^33P at the 5′ end by T4 PNK, and annealed to the unlabeled 29mer ssRNA (SEQ ID NO: 1).
Time dependent RNA degradation by RNase H. Aliquots containing 0.5 pmol of the radio-labeled DNA-RNA substrate ([…]) were incubated in Tris buffer (pH 8) with 10 mM MgCl2, KCl (between 0 and 30 mM), 3% glycerol, 0.2% NP-40, 50 μg/ml BSA and 1 mM DTT. […] The reaction products were analyzed by PAGE. […]

As for “homopolymeric U: homopolymeric polyU, 5′-(U)n-3′, n ≈ 500 to 1000, SEQ ID NO:4”, the “inhibition of HIV RT RNase H activity (measured amount of end-labeled ssDNA after reaction)” value is listed as “did not inhibit”.

For “homopolymeric A: homopolymeric polyA, 5′-(A)n-3′, n ≈ 500 to 1000, SEQ ID NO:3”, the “inhibition of HIV RT RNase H activity (measured amount of end-labeled ssDNA after reaction)” value is on record as “did not inhibit”.
